Assay results taken from paper PMC10746280, “Bacterial efflux pump modulators prevent bacterial growth in macrophages and under broth conditions that mimic the host environment” (mBio, 2023).

Assays:
[1] = test system: S. Typhimurium SL1344 (sifB::gfp) in RAW 264.7 macrophages; test: SAFIRE macrophage assay: intracellular bacterial load (GFP signal within macrophages); assay type: cell-based, Salmonella enterica serotype Typhimurium; conditions: for IC50: Salmonella enterica, TYPHIMURIUM, RAW264.7, read-out: SAFIRE IC50
How it was run: (§1)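 Compound or DMSO added 2 h after gentamicin-protected infection (MOI ~30, sifB::gfp SL1344) of RAW 264.7 cells and left to 18 h. Fixed cells imaged; intracellular GFP area per macrophage gives bacterial load, while retained adherent MitoTracker Red-stained macrophages define host toxicity.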

E. coli AcrB = target: T1, E. coli AcrB (Escherichia coli, UniProt P31224); test: Isothermal titration calorimetry (ITC) binding to purified AcrB
T1 construct: 4xHis (C); made in house; host or cells: E. coli BL21-Gold (DE3), plasmid derived from pSPORT1
Excerpt: We selected three compounds for further study, CU032, CU232, and CU244, because they incorporated different aspects of the parent structure, specifically the negative atoms on the benzene ring and the amine on opposite side of the molecule. To determine whether the EPMs could bind AcrB, we used purified E. coli AcrB, which is 95% identical to S. enterica Typhimurium AcrB. […] Here, we show with ITC that, like EPM35, the three analogs are capable of specifically interacting with AcrB to form complexes (Fig. S1; Table 1). Curiously, the analogs have KDs that are 25- to 50-fold larger than that of EPM35. […] Thus, the EPM analogs interact specifically with AcrB in a manner consistent with established EPM substrates.
AcrB protein was purified as described ([25]). Briefly, the AcrB protein contains a 4×His tag at the C-terminus and was overproduced in E. coli BL21-Gold (DE3) cells (Stratagene) using the plasmid derived from pSPORT1 (Invitrogen) ([79]). Cells were grown in 6 L of LB medium with 100 µg/mL ampicillin and disrupted with a French pressure cell. The membrane fraction was collected and washed twice with buffer containing 20 mM sodium phosphate (pH 7.2), 2 M KCl, 10% glycerol, 1 mM EDTA, and 1 mM phenylmethanesulfonyl fluoride (PMSF), and once with 20 mM HEPES–NaOH buffer (pH 7.5) containing 1 mM PMSF. The membrane proteins were then solubilized in 1% (wt/vol) n-dodecyl β-D-maltoside (DDM). Insoluble material was removed by ultracentrifugation at 370,000 × g. The extracted protein was purified with Cu^2+-affinity and G-200 sizing columns ([13], [80]). The purified AcrB protein was then concentrated to a final monomeric concentration of 10 µM in buffer containing 20 mM Na-HEPES (pH 7.5) and 0.05% DDM. Similar protein purification procedures were extensively used to elucidate structure-function of RND transporters, including AcrB ([13], [16], [25]), CusA ([81], [82]), MtrD ([83], [84]), CmeB ([85]), AdeB ([86]), HpnN ([87]), and MmpL3 ([88]).
Briefly, measurements were performed on a Microcal iTC200 (Malvern Panalytical) at 25°C. Before titration, the protein was dialyzed against buffer containing 20 mM Na-HEPES (pH 7.5), 0.05% […] (DDM), and 5% DMSO ([18]). The Bradford assay was used to quantify protein concentration, which was adjusted to a final monomeric concentration of 10 µM. Ligand solution consisting of 100 µM EPM in the aforementioned buffer was prepared as the titrant. Both the protein and ligand samples were degassed before loading the samples. Two-microliter injections of the ligand were used for data collection. Injections occurred at intervals of 60 s and lasted for 4 s. Heat transfer (µcal/s) was measured as a function of elapsed time (s). The mean enthalpies measured from injection of the ligand in the buffer were subtracted from raw titration data before data analysis with ORIGIN software (MicroCal). Titration curves fitted with a non-linear regression fitting to the binding isotherm provided the equilibrium binding constant (KA = 1/KD) and enthalpy of binding (ΔH). Based on the values of KA, the change in free energy (ΔG) and entropy (ΔS) were calculated with the equation ΔG = −RT lnKA = ΔH − TΔS, where T is […] and R is 1.9872 cal/K per mol. Calorimetry trials were also carried out in the absence of AcrB using the same experimental conditions.

RAW 264.7 macrophages = test: SAFIRE macrophage assay: host toxicity (adherent macrophage count, morphology); assay type: cell-based
How it was run: as §1

[2] = 25 uM, 'Toxic' given instead of a score
[3] = 5 uM compound, n=1, DMSO solvent control = 98, rifampicin 2 μg/mL = 65
[4] = 25 uM compound, n=1, DMSO solvent control = 98, rifampicin 2 μg/mL = 65
[5] = 5 uM compound, n=1, DMSO solvent control = 100
[6] = 25 uM compound, n=1, DMSO solvent control = 100

T1 sequence (P31224 whole entry): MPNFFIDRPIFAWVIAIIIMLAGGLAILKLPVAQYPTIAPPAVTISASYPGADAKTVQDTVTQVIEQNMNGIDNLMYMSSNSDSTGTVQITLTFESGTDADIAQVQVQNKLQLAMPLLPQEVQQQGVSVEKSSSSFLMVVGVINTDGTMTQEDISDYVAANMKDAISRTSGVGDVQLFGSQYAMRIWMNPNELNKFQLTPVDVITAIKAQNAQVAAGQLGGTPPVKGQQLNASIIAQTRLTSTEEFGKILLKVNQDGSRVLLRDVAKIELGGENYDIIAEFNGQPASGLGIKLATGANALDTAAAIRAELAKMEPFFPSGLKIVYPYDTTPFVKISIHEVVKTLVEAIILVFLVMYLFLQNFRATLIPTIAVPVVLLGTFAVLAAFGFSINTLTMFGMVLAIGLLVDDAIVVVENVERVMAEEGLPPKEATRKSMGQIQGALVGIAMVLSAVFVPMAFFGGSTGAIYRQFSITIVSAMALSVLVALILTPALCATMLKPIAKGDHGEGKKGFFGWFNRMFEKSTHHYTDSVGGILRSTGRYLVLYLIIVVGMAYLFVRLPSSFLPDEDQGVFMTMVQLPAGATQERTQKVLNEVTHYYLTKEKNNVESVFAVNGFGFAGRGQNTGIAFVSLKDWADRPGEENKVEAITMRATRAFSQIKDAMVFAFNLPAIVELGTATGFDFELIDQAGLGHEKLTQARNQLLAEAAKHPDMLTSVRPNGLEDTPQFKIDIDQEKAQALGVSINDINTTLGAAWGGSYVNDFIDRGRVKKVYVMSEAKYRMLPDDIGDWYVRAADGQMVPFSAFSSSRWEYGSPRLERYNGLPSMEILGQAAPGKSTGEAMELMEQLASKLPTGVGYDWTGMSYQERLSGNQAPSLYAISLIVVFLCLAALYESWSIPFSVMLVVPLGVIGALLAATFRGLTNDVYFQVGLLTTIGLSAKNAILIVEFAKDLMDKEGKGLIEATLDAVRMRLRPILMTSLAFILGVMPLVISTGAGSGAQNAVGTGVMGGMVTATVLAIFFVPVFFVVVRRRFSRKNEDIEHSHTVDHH

SMILES	5 uM Avg Antibacterial Score ([1]; 5 uM, 'Toxic' given instead of a score)	25 uM Avg Antibacterial Score [1, 2]	IC50 [1] [nM]	∆H (E. coli AcrB)	∆S (E. coli AcrB)	5 uM Avg Cell # Score (RAW 264.7 macrophages; 5 uM)	25 uM Avg Cell # Score (RAW 264.7 macrophages; 25 uM)	5 uM Avg Antibacterial Score [1, 3]	25 uM Avg Antibacterial Score [1, 4]	5 uM Avg Cell # Score (RAW 264.7 macrophages; [5])	25 uM Avg Cell # Score (RAW 264.7 macrophages; [6])	5 uM Avg Cell # Score (RAW 264.7 macrophages; 5 uM, listed as CU035)	25 uM Avg Cell # Score (RAW 264.7 macrophages; 25 uM, listed as CU035)
NC1CCN(CC(O)COc2ccc(Cl)c(Cl)c2)C1 (stereo not drawn) [CU032]	55	21	17.4	−1,947 ± 490 cal/mol	15.60 cal/(mol deg)	95	95	–	–	–	–	–	–
OC(CN[C@H]1[C@@H]2CNC[C@@H]21)COc1cc(Cl)cc(Cl)c1 (stereo partly drawn) [CU244]	–	–	372	−8,654 ± 1,384 cal/mol	−6.91 cal/(mol deg)	–	–	48	19	121	108	–	–
NC1CCN(CC(O)COc2cccc(C(F)(F)F)c2)CC1 (stereo not drawn) [CU232]	–	–	6.9	−2,124 ± 93 cal/mol	16.30 cal/(mol deg)	–	–	37	21	124	113	–	–
OC(COc1ccc(Cl)c(Cl)c1)CN1CCC(Nc2nccc(C(F)(F)F)n2)CC1 (stereo not drawn) [EPM35]	–	Toxic	3450	–	–	98	72	–	–	–	–	107	134
